Where two headings read alike, the source gives them in different places.
Legend:
[1] = tested on: T1, TAAR348 (trace amine-associated receptor (TAAR)-like receptor 348); assay: TR-FRET cAMP assay in TAAR348-expressing HEK293T cells; inhibition of […] spermine response; format: cell-based, Petromyzon marinus
T1 construct: full-length ORF (348 residues) with N-terminal Rho-tag, expressed in HEK293T

[2] = tested on: T1, TAAR348 (trace amine-associated receptor (TAAR)-like receptor 348); assay: TR-FRET cAMP assay in TAAR348-expressing HEK293T cells (agonist); format: cell-based, Petromyzon marinus
[3] = tested on: TAAR348 (trace amine-associated receptor (TAAR)-like receptor 348)

C1CNCCNCCNCCN1 [SP20, 1,4,7,10-tetraazacyclododecane]
IC50 [1]: 0.6 ± 0.1 µM

NCCCNCCCCNCCCNC(=O)Cc1cccc2ccccc12 [SP21, 1-naphthylacetyl spermine]
EC50 [2]: 5 ± 1 µM

NCCCNCCCCNCCCN [spermine]
EC50 [3]: 34 ± 1 µM

Source: publication PMC6615597, “Spermine in semen of male sea lamprey acts as a sex pheromone” (PLoS Biology, 2019)
